Assay results taken from US20050070565A1, “Chelerythrine, analogs thereof and their use in the treatment of bipolar disorder and other cognitive disorders” (priority 2003, published 2005).
Entries after “also recorded” stand apart in the source; their conditions may differ.

Legend:
rhesus monkeys [1] = experiment: Spatial delayed response task (working memory); assay type: in vivo, rhesus monkey
Excerpt: (§1) NE α-1 adrenergic receptors are positively coupled to PKC through a Gq-protein linked to the PI intracellular signaling pathway (FIG. 1). Previous studies have shown that infusion of the α-1 adrenergic receptor agonist, phenylephrine, into the prefrontal cortex impairs working memory in both rats (Arnsten et al., 1999; FIGS. 2, 6 and 10B) and monkeys (Mao et al, 1999). Likewise, systemic injections of cirazoline, an α-1 adrenergic receptor agonist that crosses the blood brain barrier, impairs working memory in monkeys (FIGS. 5 and 10C). Thus, PKC was activated indirectly by infusing phenylephrine into the prefrontal cortex in rats (5 min prior to cognitive testing), or by systemic administration of cirazoline in monkeys (intramuscular injections, 30 min prior to cognitive testing). Monkeys had been previously trained on the spatial delayed response task, the task most commonly used to assess prefrontal cortical function in nonhuman primates. The PKC inhibitor, chelerythrine, was administered directly into the prefrontal cortex in rats (5 min prior to cognitive testing), or systemically in monkeys (oral administration, 60 min prior to cognitive testing).
(§2) The anxiogenic stressor, FG7142, was administered systemically to rats (interperitonial injection) or monkeys (intramuscular injection) 30 min prior to cognitive testing. Chelerythrine was administered directly into the prefrontal cortex in rats (15 min prior to cognitive testing), or systemically in monkeys (oral administration, 60 min prior to cognitive testing). […] This cognitive impairment was blocked by chelerythrine (FIGS. 11A and 11B), consistent with stress-induced activation of PKC.
(§3) Chelerythrine was administered orally to rhesus monkeys at doses of either […] or 0.3 mg/kg 60 min before cognitive testing, 30 minutes prior to stress exposure (FG7142 0.2-1.0 mg/kg, i.m.). In addition to cognitive testing, monkeys are also assessed for changes in sedation, agitation, aggression, motivation, food intake, and both fine and gross motor abilities. Four monkeys were tested.

rats [2] = experiment: Response time per trial (stress-induced freezing) during delayed alternation testing; assay type: in vivo, rat
Description: FIG. 11 illustrates a summary whereby treatment with chelerythrine reverses the detrimental effects of: A. stress in rats; or B. stress in monkeys. […] In A, the anxiogenic stressor, FG7142 (range: 10 to 20 mg/kg), impaired delayed alternation performance compared to vehicle treatment in rats (vehicle+vehicle vs. FG7142+vehicle: * ANOVA-R, F1,10=25.095, p=0.001). The FG7142-induced cognitive deficit was reversed by infusion of the PKC inhibitor, chelerythrine, into the prefrontal cortex 15 min prior to testing (0.3 μg/0.5 μl; FG7142+vehicle vs. FG7142+chelerythrine: † F1,10=10.170, p=0.010). […] The FG7142-induced cognitive deficit was reversed by pretreatment with the PKC inhibitor, chelerythrine (0.03 mg/kg; FG7142+vehicle vs. FG7142+chelerythrine: † F1,4=21.23, p=0.006).
For example, stressors such as FG7142 induce freezing behaviors in rodents that effectively lengthen the delays and increase the memory demands of the task (FIG. 11C).

rats [3] = experiment: Spatial delayed alternation task in a T maze (working memory); assay type: in vivo, rat
Description: (§4) The influence of PKC activation on prefrontal cortical function was tested in rats and monkeys performing spatial working memory tasks that are critically dependant upon the integrity of the prefrontal cortex. All procedures were approved by the Yale Institutional Animal Care and Use Committee. Rats were trained on the spatial delayed alternation task in a T maze, or on a control task, spatial discrimination, which has similar motor and motivational demands but depends upon the posterior cortex and not the prefrontal cortex. Performance on the delayed alternation task is dependant upon the length of the delay between trials. The delay was raised as needed to maintain each individual animals performance at approximately 70% correct, allowing room for improvement or impairment in performance following drug administration.
Following behavioral training, rats were implanted with guide cannulae to allow drug infusions into the prefrontal cortex (stereotaxic coordinates from bregma and skull surface: anterior +3.2 mm, lateral ±0.75 mm, ventral −1.7 mm). The infusion needles projected 2.8 mm below the guide cannula such that the infusion site was −4.5 mm ventral to skull surface. Rats were allowed to recover for one week following surgery. Drug treatments were administered only after the animal achieved stable performance (60-80% correct) for two consecutive days. […] The PMA-induced working memory impairment was blocked by co-administration of chelerythrine, which had no effect on performance when administered alone (FIG. 10A). In contrast, PMA (5 picograms PMA/0.5 μl) had no effect on performance of the control spatial discrimination task (10 sec delays, mean performance after vehicle: 92.0%±11.0%, mean performance after PMA: 88.0%±13.0%, p=0.587, Tdep test).
as §1, §2
(§5) Rats were injected with 0, 0.3, or 3.0 mg/kg chelerythrine s.c. in water approximately 45 minutes before cognitive testing; they receive an injection of the pharmacological stressor, FG7142 (15 mg/kg, i.p.) or vehicle 30 minutes prior to cognitive testing. All drug treatments occur at least one week apart, and the order of treatments is counterbalanced between animals. […] All ratings were performed by experimenters who were very familiar with the normative behavior of the animal but were unaware of the drug treatment conditions.

rats [4] = experiment: Spatial discrimination control task; assay type: in vivo, rat; details: 5 picograms PMA/0.5 μl
Description: as §4
Following behavioral training, rats were implanted with guide cannulae to allow drug infusions into the prefrontal cortex (stereotaxic coordinates from bregma and skull surface: anterior +3.2 mm, lateral ±0.75 mm, ventral −1.7 mm). The infusion needles projected 2.8 mm below the guide cannula such that the infusion site was −4.5 mm ventral to skull surface. Rats were allowed to recover for one week following surgery. Drug treatments were administered only after the animal achieved stable performance (60-80% correct) for two consecutive days. […]

rhesus monkeys [5] = experiment: Assessment of sedation, agitation, aggression, motivation, food intake and motor abilities; assay type: in vivo, rhesus monkey; details: oral 0.03 or 0.3 mg/kg
Description: as §3

rats [6] = experiment: Behavioral observations for side effects in home cage and during cognitive testing; assay type: in vivo, rat; details: 0.3 or 3.0 mg/kg s.c.
Description: as §5

rats [7] = details: cited from earlier work
[8] = co-infusion into prefrontal cortex, chelerythrine 0.3 μg/0.5 μl

Compound: CNC(=O)c1cc2c(cn1)[nH]c1ccccc12 [FG7142, reference compound]
- delayed response performance after stressor vs vehicle (rhesus monkeys [1]; monkeys, FG7142 0.2 to 2.0 mg/kg injection): significantly impaired
- average response time for each trial after stressor vs vehicle (rats [2]; FG7142): increased response time
- delayed alternation performance after stressor vs vehicle (rats [3]; FG7142 10 to 20 mg/kg, 30 min prior to testing): impaired

Compound: CCCCCCCCCCCCCC(=O)O[C@@H]1[C@@H](C)[C@@]2(O)[C@@H](C=C(CO)C[C@]3(O)C(=O)C(C)=C[C@@H]23)[C@@H]2C(C)(C)[C@]12OC(C)=O [PMA, phorbol 12-myristate 13-acetate]
- effect on performance of control spatial discrimination task (rats [4]): no effect
- mean performance on control spatial discrimination task (rats [4]; 10 sec delays, vehicle 92.0%±11.0%, p=0.587): 88.0%±13.0%
- delayed alternation performance after direct PKC activation vs vehicle (rats [3]; PMA infused into prefrontal cortex, 0.05 to 5 pg/0.5 μl, 10 min prior to testing): significantly impaired

Compound: COc1ccc2c(c[n+](C)c3c4cc5c(cc4ccc23)OCO5)c1OC.[Cl-] [chelerythrine, 1,2-dimethoxy-12-methyl[1,3]benzodioxolo[5,6-c]phenanthridinium]
- tolerability / side effects (rhesus monkeys [5]): well-tolerated with no side effects
- effect on FG7142-induced cognitive deficit (rhesus monkeys [1]; monkeys, chelerythrine pretreatment 0.03 mg/kg): reversed
- effect on cirazoline-induced working memory deficit (rhesus monkeys [1]; monkeys, chelerythrine pretreatment 0.03 mg/kg oral, 60 min prior to testing): reversed
- delayed response (cognitive) performance, drug on its own (rhesus monkeys [1]; monkeys, oral chelerythrine, no challenge): no effect
- share of monkeys with complete protection at the lower dose (rhesus monkeys [1]; rhesus monkeys, 0.03 mg/kg oral, other half required 0.3 mg/kg for full reversal): Half of the monkeys showed complete protection
- effect on detrimental effects of stress on prefrontal cortical function (rhesus monkeys [1]; rhesus monkeys, oral 0.03/kg or 0.3 mg/kg 60 min before testing, FG7142 0.2-1.0 mg/kg i.m., n=4, p<0.05): significantly reversed
- side effects with administration by itself (rats [6]): no significant side effects
- effect on FG7142-induced increased response time (rats [2]; chelerythrine infused into prefrontal cortex): not blocked; also recorded: no effect on response time
- effect on detrimental effects of stress exposure, lower systemic dose (rats [3]; 0.3 mg/kg s.c., 45 min before testing, FG7142 15 mg/kg i.p., p=0.018, n=4): significantly reversed
- effect on cognitive deficits due to stress, higher systemic dose (rats [3]; 3.0 mg/kg s.c., FG7142 15 mg/kg i.p.): did not reverse
- average correct, drug on its own (rats [3]; 3.0 mg/kg s.c., no stressor, similar to vehicle): 72.5 % correct
- effect on PMA-induced working memory deficit (rats [3]; [8]): reversed; also recorded: blocked
- effect on phenylephrine-induced working memory deficit (rats [3]; [8]): significantly reversed
- effect on FG7142 (stress)-induced cognitive deficit (rats [3]; infusion into prefrontal cortex 0.3 μg/0.5 μl, 15 min prior to testing): significantly reversed
- effect on stress response (cognitive deficit), higher infused dose (rats [3]; infusion into prefrontal cortex 3.0 μg/0.51 μl): did not reverse
- performance when higher dose infused by itself (rats [3]; infusion into prefrontal cortex 3.0 μg/0.51 μl, no stress): no effect
- delayed alternation performance, drug on its own (rats [3]; infusion into prefrontal cortex, 0.3 μg/0.5 μl, no challenge): no effect

Compound: c1ccc(C2CC2)c(OCC2=NCCN2)c1 [cirazoline, reference compound]
- delayed response performance after α-1 agonist vs vehicle (rhesus monkeys [1]; monkeys, cirazoline 0.001 to 10 μg/kg intramuscular, 30 min prior to testing): significantly impaired

Compound: CNC[C@H](O)c1cccc(O)c1 [phenylephrine, reference compound]
- delayed alternation performance after α-1 agonist infusion vs vehicle (rats [3]; phenylephrine 0.1 μg/0.5 μl into prefrontal cortex, 5 min prior to testing): significantly impaired

Compound: COc1ccccc1N1CCN(CCCNc2cc(=O)n(C)c(=O)n2C)CC1 [urapidil]
- effect on phenylephrine-induced working memory impairment (FIG. 2) (rats [7]; co-infusion of urapidil into prefrontal cortex): prevented
- effect on stress-induced working memory impairment (FIG. 3) (rats [7]; urapidil infused into prefrontal cortex): prevented
